Measurements: PMC9115112, “A2B adenosine receptor antagonists rescue lymphocyte activity in adenosine-producing patient-derived cancer models” (Journal for Immunotherapy of Cancer, 2022)

Assays:
healthy donor PBMCs = experiment: Cell viability of healthy donor PBMCs on antagonist treatment (data not shown); type: cell-based, human
Method: Supplementary methods and results
Annexin V viability analysis
Cells were washed with Annexin V binding buffer (BioLegend) then incubated with Alexa Fluor 647 – conjugated Annexin V (BioLegend) at room temperature for 15 minutes. For A2AAR and A2BAR expression profiling, cells were washed with BD Perm/Wash then incubated with BD CytoFix/CytoPerm at 4°C for 20 minutes. The cells were then washed and stained with PE-conjugated A2AAR mouse antibody (Clone 7F6-G5-A2; Santa Cruz Biotechnology, sc-32261 PE) at room temperature for 30 minutes. After washing twice to remove most A2AAR antibody possible, goat A2BAR primary antibody (Clone PA5-18422; Thermo Fisher Scientific) was incubated at 4°C overnight. The cells were subsequently washed and stained with Alexa Fluor 488-conjugated anti-goat secondary antibody (Thermo Fisher Scientific) at room temperature for 1 hour. The cells were then washed with FC buffer twice before acquiring on NovoCyte. A2AAR and A2BAR fluorescence minus one (FMO) staining were also prepared. For differential expression of ADO ectonucleotidases, day five patient-derived sarcoma spheroids were digested and stained for CD45, CD73 and CD39 using the same procedures as cell surface staining (Supplementary Table 1).
Public database bioinformatic analysis […]

human A2BAR = molecular target: T1, human A2BAR (Homo sapiens, UniProt P29275); experiment: Radioligand binding, human A2BAR ([3H]DPCPX, transfected HEK-293 cells); details: displacement of [3H]DPCPX, human HEK-293 cells, n=3, racemic mixtures; read-out: Ki hA2B
T1 construct: expressed in transfected cells; host or cells: HEK-293
T1 sequence (P29275 1-332): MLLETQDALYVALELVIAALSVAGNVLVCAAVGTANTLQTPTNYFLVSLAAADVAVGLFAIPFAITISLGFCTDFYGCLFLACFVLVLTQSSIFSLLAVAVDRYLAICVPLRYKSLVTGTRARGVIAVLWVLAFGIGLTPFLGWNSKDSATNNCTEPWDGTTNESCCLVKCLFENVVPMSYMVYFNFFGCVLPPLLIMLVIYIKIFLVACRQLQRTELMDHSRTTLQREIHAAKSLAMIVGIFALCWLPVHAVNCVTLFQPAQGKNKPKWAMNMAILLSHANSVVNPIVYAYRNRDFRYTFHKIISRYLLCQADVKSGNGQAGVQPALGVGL
Method: (§1) The affinity and selectivity profiles of the ligands obtained was studied in vitro, radioligand binding assays, at the four human specific ARs subtypes, using experimental protocols previously described.[28–30] All ligands were prepared and tested as racemic mixtures. […] Non-specific binding was determined in the presence of R-PIA 10 µM for A1AR, NECA 50 µM for A2AAR, NECA 400 μΜ for A2BAR and R-PIA 100 μΜ for A3AR.

human A2AAR = molecular target: T2, human A2AAR (Homo sapiens, UniProt P29274); experiment: Radioligand binding, human A2AAR ([3H]ZM241385, transfected HeLa cells); details: displacement of [3H]ZM241385, human HeLa cells, n=3, racemic mixtures; read-out: Ki hA2A
T2 construct: expressed in transfected cells; host or cells: HeLa
Method: as §1

T2 sequence (P29274 whole entry): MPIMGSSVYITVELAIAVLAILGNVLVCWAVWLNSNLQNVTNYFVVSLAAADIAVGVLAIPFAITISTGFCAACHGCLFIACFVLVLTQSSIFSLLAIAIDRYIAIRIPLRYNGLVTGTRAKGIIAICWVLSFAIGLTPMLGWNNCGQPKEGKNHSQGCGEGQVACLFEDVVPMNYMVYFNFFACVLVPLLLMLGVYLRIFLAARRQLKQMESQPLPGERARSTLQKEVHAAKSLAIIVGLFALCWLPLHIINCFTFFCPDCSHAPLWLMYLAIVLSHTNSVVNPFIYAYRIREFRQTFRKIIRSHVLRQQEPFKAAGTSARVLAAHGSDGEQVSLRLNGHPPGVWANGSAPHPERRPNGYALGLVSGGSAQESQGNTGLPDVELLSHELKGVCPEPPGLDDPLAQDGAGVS

Ki (human A2BAR)	Ki (human A2AAR)	SMILES	Toxicity / cell viability (healthy donor PBMCs)
		CC1=C(C(=O)OC(C)C)C(c2ccco2)n2c(nc3ccccc32)N1 (stereo not drawn) [ISAM-140, isopropyl 4-(furan-2-yl)−2-methyl-1,4-dihydrobenzo[4 5] imidazo[1,2 a]pyrimidine-3-carboxylate]	non-toxic and even improved cell viability
1.5 nM	> 1000 nM	CC1=C(C(=O)OC(C)C)C(c2ccco2)n2c(nc3ccccc32)N1Cc1ccccc1F (stereo not drawn) [ISAM-R56A]	
